{"source": "patent US20090156632A1", "about": "“DOSAGE REGIMEN FOR PRASUGREL” (priority 2005, published 2009)", "key": {"[1]": {"tested_on": "ADP (5 μM and 20 μM)-induced platelet aggregation", "experiment": "Clinical Example 3: responders by ADP-induced platelet aggregation (turbidometric aggregometry) after loading dose", "format": "in vivo, human", "details": "for responders: healthy volunteers", "description": "Clopidogrel Responders and Nonresponders: A Comparison with Prasugrel a Novel Thienopyridine P2Y12 Receptor Antagonist • Background: Lower levels of inhibition of platelet aggregation (IPA) with clopidogrel have been associated with a higher risk of adverse events after percutaneous coronary intervention (PCI). Thresholds of IPA, objectively defined with Bayesian classification theory, were used to identify responders and non-responders to clopidogrel and prasugrel, a novel thienopyridine P2Y12 receptor antagonist. • Methods: An integrated database of ADP (5 μM and 20 μM)-induced platelet aggregation as measured by turbidometric aggregometry was analyzed from three single-center cross-over clinical pharmacology studies. Subjects (N=112, aged 18-65 years) were healthy volunteers with a baseline maximum platelet aggregation (MPA) of >70% to 20 μM ADP and were randomized to either a clopidogrel 300 mg loading dose (LD) or a prasugrel 60 mg LD. The change in MPA (ΔMPA) from baseline and IPA were evaluated at both 4-5 and 24 hours after the LD. A responder was defined as an individual achieving either a ΔMPA≧15% or an IPA≧20% in response to 20 μM ADP."}, "[2]": {"experiment": "Clinical Example 1: tolerability, safety and bleeding time", "format": "in vivo, human", "details": "healthy subjects; multiple oral dosing, 5 to 20 mg for 10 days", "description": "(§1) A Comparative Study of the Effects of Prasugrel and Clopidogrel on Platelet Function in Healthy Subjects • Background: Antiplatelet agents such as aspirin and clopidogrel are effective in the secondary prevention of atherothrombotic events. […] This study examined the tolerability, safety, and IPA profile of prasugrel compared with clopidogrel. • Method: A double-blind, placebo-controlled, multiple-dose study of healthy male volunteers randomized into 5 groups (n=6): prasugrel (5, 10 and 20 mg), clopidogrel (75 mg), and placebo. Study medications were taken once daily for 10 days."}, "[3]": {"tested_on": "platelet aggregation to 20 μM ADP", "experiment": "Clinical Example 2: IPA to 20 μM ADP by turbidometric aggregometry and non-responder rates in aspirin-treated patients", "format": "in vivo, human", "details": "for pre-dose IPA at day 28 / IPA at 4 h after LD: 20 μM ADP", "description": "This study analyzed IPA and non-responder rates with prasugrel (Pras), a novel P2Y12 antagonist, vs. clopidogrel (Clop) in aspirin-treated patients. • Methods: After 7-days on aspirin 325 mg, 101 subjects were randomized to 1 of 5 dosing regimens, a loading dose (LD) on day 1 and a daily maintenance dose (MD) on days 2-28: prasugrel—40 mg LD/5 mg MD, 40 mg LD/7.5 mg MD, 60 mg LD/10 mg MD, or 60 mg LD/15 mg MD or clopidogrel—300 mg LD/75 mg MD). IPA to 20 μM ADP was measured by turbidometric aggregometry."}, "[4]": {"tested_on": "platelet aggregation induced by 20 μM ADP", "experiment": "Clinical Example 1: multiple-dose study, platelet aggregation induced by 20 μM ADP measured turbidometrically", "format": "in vivo, human", "details": "for IPA: 24 hours after 10th dose, mean ± SE, n = 6", "description": "as §1"}, "platelet aggregation": {"tested_on": "platelet aggregation", "experiment": "Preclinical studies of prasugrel base versus clopidogrel", "details": "preclinical studies involving the base of prasugrel"}, "[5]": {"details": "5 μM ADP, prasugrel 60 mg LD, N = 91"}, "[6]": {"details": "20 μM ADP, prasugrel 60 mg LD, N = 91"}, "[7]": {"details": "5 μM ADP, clopidogrel 300 mg LD, N = 112"}, "[8]": {"details": "20 μM ADP, clopidogrel 300 mg LD, N = 112"}}, "data": [{"smiles": "CC(=O)Oc1cc2c(s1)CCN(C(C(=O)C1CC1)c1ccccc1F)C2", "note": "(stereo not drawn) [prasugrel, 2-Acetoxy-5-(α-cyclopropylcarbonyl-2-fluorobenzyl)-4,5,6,7-tetrahydrothieno[3,2-c]pyridine]", "values": [{"measurement": "Number of Responders, IPA ≧ 25%", "setting": "[1]; [5]", "value": 91}, {"measurement": "Number of Responders, ΔMPA ≧ 20%", "setting": "[1]; [5]", "value": 91}, {"measurement": "Percentage of Responders, IPA ≧ 25%", "setting": "[1]; [5]", "value": 100, "unit": "%"}, {"measurement": "Percentage of Responders, ΔMPA ≧ 20%", "setting": "[1]; [5]", "value": 100, "unit": "%"}, {"measurement": "responders", "setting": "[1]; 5 μM ADP, prasugrel 60 mg LD", "value": 100, "unit": "%"}, {"measurement": "Number of Responders, IPA ≧ 20%", "setting": "[1]; [6]", "value": 91}, {"measurement": "Number of Responders, ΔMPA ≧ 15%", "setting": "[1]; [6]", "value": 91}, {"measurement": "Percentage of Responders, IPA ≧ 20%", "setting": "[1]; [6]", "value": 100, "unit": "%"}, {"measurement": "Percentage of Responders, ΔMPA ≧ 15%", "setting": "[1]; [6]", "value": 100, "unit": "%"}, {"measurement": "responders", "setting": "[1]; 20 μM ADP, prasugrel 60 mg LD", "value": 100, "unit": "%"}, {"measurement": "tolerability", "setting": "[2]", "value": "well tolerated"}, {"measurement": "pre-dose IPA at day 28", "setting": "[3]; prasugrel 10 mg MD, aspirin-treated patients", "value": 57.5, "unit": "%"}, {"measurement": "pre-dose IPA at day 28", "setting": "[3]; prasugrel 15 mg MD, aspirin-treated patients", "value": 65.8, "unit": "%"}, {"measurement": "IPA at 4 h after LD", "setting": "[3]; prasugrel 40 mg LD, aspirin-treated patients", "value": 60.6, "unit": "%"}, {"measurement": "IPA at 4 h after LD", "setting": "[3]; prasugrel 60 mg LD, aspirin-treated patients", "value": 68.4, "unit": "%"}, {"measurement": "rate of non-responders compared to standard clopidogrel LD and MD", "setting": "[3]; prasugrel LD of 40 or 60 mg and MD of 10 or 15 mg, aspirin-treated patients", "value": "lower rate of non-responders"}, {"measurement": "IPA", "setting": "[4]; prasugrel 5 mg once daily for 10 days, 20 μM ADP", "value": "39.2 ± 4.4", "unit": "%"}, {"measurement": "IPA", "setting": "[4]; prasugrel 10 mg once daily for 10 days, 20 μM ADP", "value": "58.2 ± 4.9", "unit": "%"}, {"measurement": "IPA", "setting": "[4]; prasugrel 20 mg once daily for 10 days, 20 μM ADP", "value": "68.3 ± 5.4", "unit": "%"}, {"measurement": "IPA, range over doses", "setting": "[4]; prasugrel 5, 10 and 20 mg once daily for 10 days, 24 hours after the final dose, 20 μM ADP", "value": "39.2%-68.3"}, {"measurement": "potency relative to clopidogrel", "setting": "platelet aggregation", "value": "at least 10 times"}]}, {"smiles": "COC(=O)[C@H](c1ccccc1Cl)N1CCc2sccc2C1", "note": "[clopidogrel, reference compound]", "values": [{"measurement": "Number of Responders, IPA ≧ 25%", "setting": "[1]; [7]", "value": 87}, {"measurement": "Number of Responders, ΔMPA ≧ 20%", "setting": "[1]; [7]", "value": 82}, {"measurement": "Percentage of Responders, IPA ≧ 25%", "setting": "[1]; [7]", "value": 78, "unit": "%"}, {"measurement": "Percentage of Responders, ΔMPA ≧ 20%", "setting": "[1]; [7]", "value": 73, "unit": "%"}, {"measurement": "responders", "setting": "[1]; 5 μM ADP, clopidogrel 300 mg LD", "value": "approximately 75%"}, {"measurement": "Number of Responders, IPA ≧ 20%", "setting": "[1]; [8]", "value": 64}, {"measurement": "Number of Responders, ΔMPA ≧ 15%", "setting": "[1]; [8]", "value": 68}, {"measurement": "Percentage of Responders, IPA ≧ 20%", "setting": "[1]; [8]", "value": 57, "unit": "%"}, {"measurement": "Percentage of Responders, ΔMPA ≧ 15%", "setting": "[1]; [8]", "value": 61, "unit": "%"}, {"measurement": "responders", "setting": "[1]; 20 μM ADP, clopidogrel 300 mg LD", "value": 60, "unit": "%"}, {"measurement": "pre-dose IPA at day 28", "setting": "[3]; clopidogrel 75 mg MD, aspirin-treated patients", "value": 31.2, "unit": "%"}, {"measurement": "non-responder rate (not achieving ≧20% IPA)", "setting": "[3]; clopidogrel 75 mg MD, pre-dose during MD", "value": 46, "unit": "%"}, {"measurement": "non-responder rate (not achieving ≧20% IPA)", "setting": "[3]; clopidogrel 300 mg LD, 4 h after LD", "value": 52, "unit": "%"}, {"measurement": "IPA at 4 h after LD", "setting": "[3]; clopidogrel 300 mg LD, aspirin-treated patients", "value": 30.0, "unit": "%"}, {"measurement": "subjects demonstrating minimal IPA at Day 10", "setting": "[4]; clopidogrel 75 mg once daily for 10 days", "value": "2 of 6"}, {"measurement": "IPA", "setting": "[4]; clopidogrel 75 mg once daily for 10 days, 20 μM ADP", "value": 15.7, "unit": "%"}, {"measurement": "IPA", "setting": "[4]; clopidogrel 75 mg once daily for 10 days, 20 μM ADP, listed as Clopidogrel", "value": "15.7 ± 6.8", "unit": "%"}]}]}
